Data published in patent US20120190707A1, “SELECTIVE INHIBITORS OF AKT AND METHODS OF USING SAME” (priority 2008, published 2012).

Tests used:
[1] = test system: AKT association with HSP90; assay: AKT association with HSP90, immunoprecipitation from melanoma cells; format: cell-based, human; details: 10.micro.M, 4 h
Description: FIG. 6 describes the effect of BI-69A11 on phosphorylation and total levels of AKT in UACC 903 (PTEN−) cells. (A) UACC903 and the modified clone 29-1 (PTEN+) cells were exposed to 10 micro.M BI-69A11 and 50 micro.M LY294002 (a PI3K inhibitor) and the levels of pAKT473 and total AKT determined by western analysis. […] (SF=Serum Free). (B) BI-69A11 inhibits PRAS40 phosphorylation. UACC903 melanoma cells or 29-1 cells (PTEN+) were subjected to treatment with IGF-1 (20 ng/mL) and the level of PRAS40 phosphorylation was assessed. […] The cells were collected, lysed and levels of pPRAS40 and total PRAS40 determined by western analysis. (C) AKT association with HSP90 is inhibited by BI-69A11. Human melanoma cells were treated with BI-69A11 (10.micro.M) or DMSO control for 4 h, followed by protein preparation and immunoprecipitation using antibodies to pan-AKT. MG132 treatment, when used, initiated 1 h prior to treatment and lasted up to the preparation of proteins (total of 5 h). The right panel depicts analysis of total lysates.
Among cellular proteins implicated in the regulation of AKT levels is the cellular chaperone HSP90. […] Thus we assessed whether association of AKT with HSP90 could be affected by BI-69A11. […]

[2] = test system: UACC 903 melanoma xenografts; assay: UACC 903 melanoma xenografts in nude mice; format: in vivo
Description: (A) Nude mice were subcutaneously injected with UACC 903 cells and tumors were allowed to reach an approximate size of 1 mm^3 before intraperitoneal treatment was started; treatment was performed twice per week for 3 weeks with the indicated concentrations of BI-69A11. Each of the experimental groups consisted of 10 mice that were subjected to treatment with the indicated concentration of BI-69A11. […] Tumors were measured with calipers at the indicated time points. The mice were sacrificed and tumors harvested at the end of this period were measured and weighed to determine tumor volume and mass. Blue bars represent control-vehicle treated group; yellow bars represent the 5 mg/Kg treatment group; the orange and green bars represent the 1 and 2 mg/Kg treatment groups, respectively. (B) Analysis of cell death in the tumors was performed using Tunel staining. Shown are representative pictures for control tumors (right) and a treatment group (5 mg/Kg; left). (C) Quantification of Tunel staining in the different tumor groups. Samples from each of the tumors were subjected to Tunel staining which was quantified by Aperio ImageScope and confirmed by visual inspection of representative samples. The percentage of Tunel positive cells is indicated in the graph. […]
In light of the efficient cell death elicited by BI-69A11, we assessed its activity on tumor growth in mouse xenografts. […]
For the tumor studies, UACC 903 cells […] were injected subcutaneously and tumor size was monitored using calipers twice per week. […] At the end of the study, tumors were harvested, weighed and measured.
For the tunel assay and quantitative analysis, the detection of nuclei with fragmented DNA by terminal deoxyribonucleotidyl transferase-mediated dUTP nick end labeling (TUNEL) was accomplished using the ApopTag Peroxidase In situ Apoptosis Detection Kit (Chemicon, Temecula, Calif., US) according to the instructions of the manufacturer. […]

[3] = test system: UACC903 melanoma cells; assay: Cell death by trypan blue exclusion in UACC903 compared with 29-1 cells; format: cell-based, human
Description: (A) 903 and 29-1 cells were exposed to different concentrations of BI-69A11 or UV light as a positive control and the percentage of cell death determined by trypan blue exclusion assay. (B) PARP cleavage was determined in 903 and 29-1 cells after treatment with BI-69A11 at 2, 4 and 6 hours.
Since AKT activity is important for tumor cell survival, its inhibition is expected to result in cell death. We thus monitored cell death in melanoma cells that were treated with BI-69A11.
For the proliferation assays, cells were treated as described above. However, instead of scraping cells into the serum-free medium, floating cells were collected in a 15 mL centrifuge tube whereas adherent cells trypsinized gently. The total cell population was pooled and counted on a hemocytometer after staining with Trypan Blue. The percentage of dead cells was determined by calculating the number of dead cells/total cells X 100. This experiment was performed two times each in triplicate.

[4] = molecular target: Abl1 (Homo sapiens, UniProt P00519); assay: Non related protein kinase Abl1 inhibition; format: biochemical; details: concentrations up to 100 μM
Chain of Abl1 (P00519 whole entry, species assumed): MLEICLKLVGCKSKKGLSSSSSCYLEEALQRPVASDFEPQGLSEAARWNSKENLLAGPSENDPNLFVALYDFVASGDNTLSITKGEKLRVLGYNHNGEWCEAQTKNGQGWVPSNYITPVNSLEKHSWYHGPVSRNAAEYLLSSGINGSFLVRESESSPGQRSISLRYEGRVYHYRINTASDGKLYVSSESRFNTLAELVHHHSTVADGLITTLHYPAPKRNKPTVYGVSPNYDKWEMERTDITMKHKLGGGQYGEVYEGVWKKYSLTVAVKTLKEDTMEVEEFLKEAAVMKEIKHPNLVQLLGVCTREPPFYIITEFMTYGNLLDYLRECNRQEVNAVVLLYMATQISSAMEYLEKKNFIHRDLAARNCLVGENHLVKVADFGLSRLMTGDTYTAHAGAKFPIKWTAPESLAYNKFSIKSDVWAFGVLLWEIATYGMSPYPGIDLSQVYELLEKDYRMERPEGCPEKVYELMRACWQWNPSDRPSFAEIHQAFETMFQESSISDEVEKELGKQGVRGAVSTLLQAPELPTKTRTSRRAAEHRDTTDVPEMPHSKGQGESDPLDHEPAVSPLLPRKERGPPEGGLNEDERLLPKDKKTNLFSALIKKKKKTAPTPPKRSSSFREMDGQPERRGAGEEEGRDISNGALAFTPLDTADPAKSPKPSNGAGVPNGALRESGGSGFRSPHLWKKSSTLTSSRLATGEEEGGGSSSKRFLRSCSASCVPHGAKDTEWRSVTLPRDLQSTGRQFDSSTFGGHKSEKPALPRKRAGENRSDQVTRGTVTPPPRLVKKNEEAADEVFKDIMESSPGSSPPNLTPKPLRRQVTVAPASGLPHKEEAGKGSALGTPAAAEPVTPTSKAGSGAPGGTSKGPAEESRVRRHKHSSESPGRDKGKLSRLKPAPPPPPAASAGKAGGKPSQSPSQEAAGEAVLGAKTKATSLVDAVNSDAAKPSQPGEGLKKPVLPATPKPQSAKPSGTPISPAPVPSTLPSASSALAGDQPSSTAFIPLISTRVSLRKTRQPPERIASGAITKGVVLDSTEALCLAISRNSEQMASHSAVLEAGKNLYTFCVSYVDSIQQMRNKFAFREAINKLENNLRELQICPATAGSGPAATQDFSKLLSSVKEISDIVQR
Description: In addition, we tested our compounds against a non related protein kinase, Abl1 (22), which is a tyrosine kinase under investigation in our laboratory.
We recently reported on the direct evaluation of a number of in silico approaches to identify AKT inhibitors (Forino et al., 2005) We achieved experimental validation of selected compounds using both a fluorescence-based enzymatic assay and a substrate phosphorylation assay involving the protein GSK-3 (Forino et al., 2005). Briefly, the virtual docking approach consists of selecting the top 4,000 out of 50,000 docked compounds, using a variety of computational docking approaches, including a consensus score among two different scoring functions (Forino et al., 2005). Of those, 100 compounds were selected based on ranking and favorable docking geometry.

[5] = 0.5-2.0 mg/kg intra-peritoneally twice per week, 3 weeks

SMILES: O=C(/C=C/c1nc2ccccc2[nH]1)c1c(O)nc2ccc(Cl)cc2c1-c1ccccc1 [Compound 2, (E)-3-(3-(1H-benzo[d]imidazol-2-yl)acryloyl)-6-chloro-4-phenylquinolin-2(1H)-one]
- AKT association with HSP90 [1]: abolished
- growth of the melanoma tumors [2, 5]: effectively inhibits further growth
- regression of the tumors [2, 5]: efficient regression
- apoptosis in tumors by Tunel staining, compared with control tumors ([2]; treatment groups 0.5-2.0 mg/kg): higher degrees of apoptosis
- cell death, PTEN mutant melanoma cells compared with 29-1 cells ([3]; FIG. 7A): more pronounced on PTEN mutant melanoma cells
- cell death of melanoma cells ([3]; concentrations as low as 1 micro.M, within 24 hours): effective cell death
- inhibition of Abl1 [4]: did not affect
